How the values were obtained:
Test in all cases: Kinase selectivity, scanMAX Kinase assay panel (DiscoverX), % control at 1 uM
Type in all cases: binding
[1] = target: T1, scanMAX Kinase assay panel (Homo sapiens, UniProt Q96NX5); settings: CAMK1G; 1 uM; read-out: Percent Control (%)
T1 construct: purchased DiscoverX
Method in brief: (§1)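 Read-out is percent of control, derived from the signal with compound relative to positive and negative controls: (compound − positive)/(negative − positive) × 100. Each enzyme received test drug at 1 uM in DMSO, and values under 35% count as active.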

[2] = target: T2, scanMAX Kinase assay panel (Homo sapiens, UniProt Q92772); settings: CDKL2; 1 uM; read-out: Percent Control (%)
T2 construct: purchased DiscoverX
T2 sequence (Q92772 1-493): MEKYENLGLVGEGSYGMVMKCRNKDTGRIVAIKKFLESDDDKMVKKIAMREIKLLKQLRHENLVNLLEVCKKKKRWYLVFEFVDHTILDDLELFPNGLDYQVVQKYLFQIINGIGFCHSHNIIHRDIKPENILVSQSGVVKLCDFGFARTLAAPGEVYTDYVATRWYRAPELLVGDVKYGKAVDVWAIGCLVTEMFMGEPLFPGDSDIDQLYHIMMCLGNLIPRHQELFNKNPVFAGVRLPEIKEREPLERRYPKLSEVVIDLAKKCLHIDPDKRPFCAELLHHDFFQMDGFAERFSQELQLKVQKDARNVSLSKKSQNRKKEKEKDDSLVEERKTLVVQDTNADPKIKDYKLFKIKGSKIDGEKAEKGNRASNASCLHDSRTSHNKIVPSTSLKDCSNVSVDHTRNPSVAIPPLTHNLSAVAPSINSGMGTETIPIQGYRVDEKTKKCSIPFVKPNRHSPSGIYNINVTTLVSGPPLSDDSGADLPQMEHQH
Method in brief: as §1

[3] = target: T3, scanMAX Kinase assay panel (Homo sapiens, UniProt Q8TD19); settings: NEK9; 1 uM; read-out: Percent Control (%)
T3 construct: purchased DiscoverX
T3 sequence (Q8TD19 1-979): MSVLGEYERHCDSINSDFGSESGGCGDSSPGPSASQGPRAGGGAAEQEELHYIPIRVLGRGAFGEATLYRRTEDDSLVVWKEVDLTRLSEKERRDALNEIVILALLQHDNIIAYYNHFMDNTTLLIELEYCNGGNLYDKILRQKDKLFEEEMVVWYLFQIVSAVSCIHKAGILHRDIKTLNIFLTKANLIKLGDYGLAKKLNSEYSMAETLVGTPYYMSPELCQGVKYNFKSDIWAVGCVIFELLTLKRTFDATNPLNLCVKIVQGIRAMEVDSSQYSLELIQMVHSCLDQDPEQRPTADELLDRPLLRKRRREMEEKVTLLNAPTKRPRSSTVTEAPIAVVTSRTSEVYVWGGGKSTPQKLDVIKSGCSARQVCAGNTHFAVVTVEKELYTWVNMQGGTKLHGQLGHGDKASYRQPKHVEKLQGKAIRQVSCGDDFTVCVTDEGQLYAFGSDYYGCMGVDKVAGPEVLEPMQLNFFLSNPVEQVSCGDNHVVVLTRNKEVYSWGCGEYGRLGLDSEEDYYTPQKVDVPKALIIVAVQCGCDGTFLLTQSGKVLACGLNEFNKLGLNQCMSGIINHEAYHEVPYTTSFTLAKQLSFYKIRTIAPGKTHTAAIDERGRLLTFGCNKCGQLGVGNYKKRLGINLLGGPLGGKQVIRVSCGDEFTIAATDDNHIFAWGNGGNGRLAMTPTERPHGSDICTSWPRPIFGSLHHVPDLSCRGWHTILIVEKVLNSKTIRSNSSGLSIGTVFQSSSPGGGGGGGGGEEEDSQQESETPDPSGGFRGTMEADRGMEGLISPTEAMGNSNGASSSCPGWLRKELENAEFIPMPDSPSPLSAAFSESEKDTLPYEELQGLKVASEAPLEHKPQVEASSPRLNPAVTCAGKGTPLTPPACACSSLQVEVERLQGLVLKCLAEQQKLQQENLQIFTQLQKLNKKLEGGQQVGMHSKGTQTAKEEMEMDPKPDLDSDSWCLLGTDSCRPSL
Method in brief: as §1

[4] = target: T4, scanMAX Kinase assay panel (Homo sapiens, UniProt Q06187); settings: BTK; 1 uM; read-out: Percent Control (%)
T4 construct: purchased DiscoverX
T4 sequence (Q06187 whole entry): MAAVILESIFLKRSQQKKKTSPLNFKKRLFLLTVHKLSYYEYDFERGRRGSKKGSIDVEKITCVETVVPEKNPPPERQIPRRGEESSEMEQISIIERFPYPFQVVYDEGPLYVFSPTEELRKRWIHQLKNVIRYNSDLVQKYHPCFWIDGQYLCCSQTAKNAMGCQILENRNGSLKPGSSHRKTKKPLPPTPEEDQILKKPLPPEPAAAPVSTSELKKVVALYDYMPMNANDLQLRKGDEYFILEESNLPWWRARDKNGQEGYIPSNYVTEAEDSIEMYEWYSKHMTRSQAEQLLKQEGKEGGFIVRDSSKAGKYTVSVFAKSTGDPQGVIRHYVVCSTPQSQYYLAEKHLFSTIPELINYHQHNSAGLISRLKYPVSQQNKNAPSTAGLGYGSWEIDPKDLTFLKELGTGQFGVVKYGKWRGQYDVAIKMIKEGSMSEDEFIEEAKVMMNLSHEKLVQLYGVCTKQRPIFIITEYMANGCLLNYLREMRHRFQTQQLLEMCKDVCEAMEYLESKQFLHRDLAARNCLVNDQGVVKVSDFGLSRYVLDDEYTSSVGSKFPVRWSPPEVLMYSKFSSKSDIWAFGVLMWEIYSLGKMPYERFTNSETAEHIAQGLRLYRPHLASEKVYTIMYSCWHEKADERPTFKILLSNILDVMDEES
Method in brief: as §1

[5] = target: T5, scanMAX Kinase assay panel (Homo sapiens, UniProt P57058); settings: HUNK; 1 uM; read-out: Percent Control (%)
T5 construct: purchased DiscoverX
T5 sequence (P57058 1-714): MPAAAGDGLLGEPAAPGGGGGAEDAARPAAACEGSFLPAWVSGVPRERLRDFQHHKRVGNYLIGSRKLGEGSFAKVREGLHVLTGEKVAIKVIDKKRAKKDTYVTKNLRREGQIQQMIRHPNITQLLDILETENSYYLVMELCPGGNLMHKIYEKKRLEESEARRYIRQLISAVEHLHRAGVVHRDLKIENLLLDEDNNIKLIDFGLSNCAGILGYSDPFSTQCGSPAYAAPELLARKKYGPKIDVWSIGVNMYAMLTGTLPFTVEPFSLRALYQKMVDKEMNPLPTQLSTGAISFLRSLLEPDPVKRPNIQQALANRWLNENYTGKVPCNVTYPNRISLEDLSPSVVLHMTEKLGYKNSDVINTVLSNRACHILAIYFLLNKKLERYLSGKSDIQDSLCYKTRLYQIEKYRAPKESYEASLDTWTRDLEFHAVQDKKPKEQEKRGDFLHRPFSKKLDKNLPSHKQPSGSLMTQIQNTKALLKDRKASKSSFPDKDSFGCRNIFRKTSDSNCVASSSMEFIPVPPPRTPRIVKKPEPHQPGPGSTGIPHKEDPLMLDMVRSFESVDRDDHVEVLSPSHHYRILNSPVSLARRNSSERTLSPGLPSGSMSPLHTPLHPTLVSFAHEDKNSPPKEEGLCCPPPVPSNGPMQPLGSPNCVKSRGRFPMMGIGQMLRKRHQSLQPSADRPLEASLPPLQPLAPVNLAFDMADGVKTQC
Method in brief: as §1

T1 sequence (Q96NX5 whole entry): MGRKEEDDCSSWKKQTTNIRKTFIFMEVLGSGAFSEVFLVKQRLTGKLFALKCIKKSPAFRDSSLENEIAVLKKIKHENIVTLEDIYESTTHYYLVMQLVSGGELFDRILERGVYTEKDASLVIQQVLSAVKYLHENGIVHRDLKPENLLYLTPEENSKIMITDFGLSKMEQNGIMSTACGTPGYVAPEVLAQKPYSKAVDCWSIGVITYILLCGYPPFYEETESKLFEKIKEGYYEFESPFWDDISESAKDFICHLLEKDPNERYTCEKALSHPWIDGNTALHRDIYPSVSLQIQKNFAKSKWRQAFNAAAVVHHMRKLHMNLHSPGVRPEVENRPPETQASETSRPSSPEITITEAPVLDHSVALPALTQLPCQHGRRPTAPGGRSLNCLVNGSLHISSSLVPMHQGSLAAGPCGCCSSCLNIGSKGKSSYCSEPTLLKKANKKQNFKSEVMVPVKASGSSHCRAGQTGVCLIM

| SMILES | remaining binding at 1 µM [1] [%] | remaining binding at 1 µM [2] [%] | remaining binding at 1 µM [3] [%] | remaining binding at 1 µM [4] [%] | remaining binding at 1 µM [5] [%] |
| --- | --- | --- | --- | --- | --- |
| Cc1ccc(C(=O)Nc2ccc(CN3CCN(C)CC3)c(C(F)(F)F)c2)cc1C#Cc1cnc2c(Nc3cnn(C)c3)cccn12 [Example 1, 4-methyl-3-((8-((1-methyl-1H-pyrazol-4-yl)amino)imidazo[1,2-a]pyridin-3-yl)ethynyl)-N-(4-((4-methylpiperazin-1-yl)methyl)-3-(trifluoromethyl)phenyl)benzamide] | 71 | 0 | 6 | 1 | 74 |
| Cc1cn(-c2cc(NC(=O)c3ccc(C)c(C#Cc4cnc5c(Nc6cnn(C)c6)cccn45)c3)cc(C(F)(F)F)c2)cn1 [Example 12, 4-methyl-N-(3-(4-methyl-1H-imidazol-1-yl)-5-(trifluoromethyl)phenyl)-3-((8-((1-methyl-1H-pyrazol-4-yl)amino)imidazo[1,2-a]pyridin-3-yl)ethynyl)benzamide] | 91 | 55 | 86 | 37 | 79 |
| Cc1ccc(NC(=O)C2(C(=O)Nc3ccc(F)cc3)CC2)cc1C#Cc1cnc2c(Nc3cnn(C(C)C)c3)cccn12 [Example 78] | 100 | 94 | 100 | 100 | 93 |

Source: patent US10870647B2, “Imidazopyridine derivative, method for preparing same, and pharmaceutical composition containing same as active ingredient for preventing or treating cancer” (DAEGU-GYEONGBUK MEDICAL INNOVATION FOUNDATION, priority 2016, dated 2020)
